SMILES strings stand for the structures.

A short description of the test: Effective concentration for DP2 mediated chemotaxis in eosinophils.
Compound `CCCCC[C@](C)(O)/C=C/[C@H]1C(=O)C[C@H](O)[C@@H]1C/C=C/CCCC(=O)O` showed an EC50 of 128 nM.
Next, `CCCCC[C@H](O)/C=C/[C@H]1C(=O)C[C@H](O)[C@@H]1C/C=C/CCCC(=O)O` [(Z)-7-[(1R,2R,5S)-5-Hydroxy-2-((E)-(S)-3-hydroxy-oct-1-enyl)-3-oxo-cyclopentyl]-hept-5-enoic acid]: 10 nM; `CCCCC[C@@](C)(O)/C=C/[C@H]1C(=O)C[C@H](O)[C@@H]1C/C=C/CCCC(=O)O` [(Z)-7-[(1R,4S,5R)-5-Hydroxy-2-((R)-3-hydroxy-3-methyl-oct-1-enyl)-3-oxo-cyclopentyl]-hept-5-enoic acid]: 1.7 nM.

The record behind these values is BindingDB's records for doi:10.1016/j.bmcl.2005.02.011 (Florida Institute of Technology, 2005).
